Test results from ChEMBL document CHEMBL6178016, “Design, Synthesis, and Biological Evaluation of New PDE4 Inhibitors for the Treatment of Pressure Ulcers” (J Med Chem, 2025).
Active and inactive are the calls of the source. No cut-off for these calls is given here.

Tests used:
RAW264.7 [1] = test: Antiinflammatory activity against mouse RAW264.7 cells assessed as inhibition of LPS-induced NO release preincubated for 2 hrs followed by LPS stimulation and measured after 4 hrs by RT-PCR analysis; format: functional, cell-based
[2] = Acute toxicity in male Kunming mouse assessed as effect on pathological changes in heart at 500 to 4000 mg/kg measured after 14 days by H and E staining based analysis; format: organism-based; settings: in vivo, 336 h, dose 500-4000 mg/kg, time 14 day
[3] = C0 in Sprague-Dawley rat at 5 mg/kg, iv; format: ADME, organism-based; settings: in vivo
[4] = Acute toxicity in male Kunming mouse assessed as effect on pathological changes in spleen at 500 to 4000 mg/kg measured after 14 days by H and E staining based analysis; format: organism-based; settings: in vivo, 336 h, dose 500-4000 mg/kg, time 14 day
[5] = target: T1, 3',5'-cyclic-AMP phosphodiesterase 4D (Homo sapiens, UniProt Q08499); test: Inhibition of PDE4D (unknown origin) at 1 uM relative to control
[6] = target: T1, 3',5'-cyclic-AMP phosphodiesterase 4D; test: Inhibition of PDE4D (unknown origin)
Cytochrome P450 2C9 = Cytochrome P450 2C9 (Homo sapiens, UniProt P11712); test: Inhibition of human CYP2C9; format: ADME
Rattus norvegicus [7] = test: Antiinflammatory activity against male Sprague-Dawley rat pressure ulcer model assessed as appearance of orderly arranged cells at 0.625 to 2.5% administered as ointment by Masson staining based analysis; format: functional, organism-based
Rattus norvegicus [8] = test: Antiinflammatory activity against male Sprague-Dawley rat pressure ulcer model assessed as reduction in TNF-alpha mRNA expression in skin at 1.25% administered as ointment by qRT-PCR analysis; format: functional, organism-based
[9] = target: High affinity cAMP-specific and IBMX-insensitive 3',5'-cyclic phosphodiesterase 8A (Homo sapiens, UniProt O60658); test: Inhibition of PDE8A (unknown origin)
[10] = Clearance in Sprague-Dawley rat at 5 mg/kg, iv; format: ADME, organism-based; settings: in vivo
[11] = target: cGMP-inhibited 3',5'-cyclic phosphodiesterase 3A (Homo sapiens, UniProt Q14432); test: Inhibition of PDE3A (unknown origin)
Enterococcus faecium = test: Antibacterial activity against Enterococcus faecium BNCC358275 assessed as reduction in bacterial colonies growth at 512 ug/ml measured after 24 hrs by agar plate method; format: functional, organism-based; settings: dose 512.0 µg/ml
RAW264.7 [12] = test: Cytotoxicity against mouse RAW264.7 cells measured after 24 hrs by CCK-8 method; format: functional
[13] = Acute toxicity in female Kunming mouse assessed as effect on weight at 500 to 4000 mg/kg measured after 14 days; format: organism-based; settings: in vivo, 336 h, dose 500-4000 mg/kg, time 14 day
[14] = target: Voltage-gated inwardly rectifying potassium channel KCNH2 (Homo sapiens, UniProt Q12809); test: Inhibition of human ERG stably expressed in HEK293 cells by manual membrane clamp technique; format: toxicity, cell-based
Rattus norvegicus [15] = organism: Rattus norvegicus; test: Antiinflammatory activity against male Sprague-Dawley rat pressure ulcer model assessed as increase in CREB phosphorylation expression by immunohistochemical staining based analysis; format: functional, organism-based
RAW264.7 [16] = test: Antiinflammatory activity against LPS induced mouse RAW264.7 cells assessed as increase in CREB phosphorylation expression at 5 to 20 uM by immunofluorescence analysis; format: functional, cell-based; settings: dose 5-20 µM
[17] = AUC (0 to infinity) in Sprague-Dawley rat at 10 mg/kg, po; format: ADME, organism-based; settings: in vivo
[18] = Acute toxicity in female Kunming mouse assessed as effect on pathological changes in heart at 500 to 4000 mg/kg measured after 14 days by H and E staining based analysis; format: organism-based; settings: in vivo, 336 h, dose 500-4000 mg/kg, time 14 day
RAW264.7 [19] = test: Antiinflammatory activity against mouse RAW264.7 cells assessed as increase in cAMP expression at 5 to 20 uM by […] analysis; format: functional, cell-based; settings: dose 5-20 µM
[20] = target: High affinity 3',5'-cyclic-AMP phosphodiesterase 7A (Homo sapiens, UniProt Q13946); test: Inhibition of PDE7A (unknown origin)
RAW264.7 [21] = test: Cytotoxicity against mouse RAW264.7 cells at 10 uM measured after 24 hrs by CCK-8 method; format: functional, cell-based
Rattus norvegicus [22] = test: Antiinflammatory activity against male Sprague-Dawley rat pressure ulcer model assessed as increase in number of fibroblasts at 0.625 to 2.5% administered as ointment by H and E staining based analysis; format: functional, organism-based
[23] = AUC (0 to infinity) in Sprague-Dawley rat at 5 mg/kg, iv; format: ADME, organism-based; settings: in vivo
[24] = target: Dual 3',5'-cyclic-AMP and -GMP phosphodiesterase 11A (Homo sapiens, UniProt Q9HCR9); test: Inhibition of PDE11A (unknown origin)
[25] = AUC (0 to t) in Sprague-Dawley rat at 5 mg/kg, iv; format: ADME, organism-based; settings: in vivo
Rattus norvegicus [26] = test: Antiinflammatory activity against male Sprague-Dawley rat pressure ulcer model assessed as reduction in IL6 mRNA expression in skin at 1.25% administered as ointment by qRT-PCR analysis; format: functional, organism-based
Rattus norvegicus [27] = test: Antiinflammatory activity against male Sprague-Dawley rat pressure ulcer model assessed as appearance of thinner epidermal layer at 0.625 to 2.5% administered as ointment by H and E staining based analysis; format: functional, organism-based
[28] = Acute toxicity in female Kunming mouse assessed as effect on pathological changes in lung at 500 to 4000 mg/kg measured after 14 days by H and E staining based analysis; format: organism-based; settings: in vivo, 336 h, dose 500-4000 mg/kg, time 14 day
[29] = Acute toxicity in male Kunming mouse assessed as effect on pathological changes in lung at 500 to 4000 mg/kg measured after 14 days by H and E staining based analysis; format: organism-based; settings: in vivo, 336 h, dose 500-4000 mg/kg, time 14 day
Rattus norvegicus [30] = test: Antiinflammatory activity against male Sprague-Dawley rat pressure ulcer model assessed as decrease in inflammatory cells in dermis at 0.625 to 2.5% administered as ointment by H and E staining based analysis; format: functional, organism-based
[31] = Toxicity in male Sprague-Dawley rat assessed as pathological changes in kidney by H and E staining based analysis; format: tissue-based; settings: in vivo
Rattus norvegicus [32] = test: Antiinflammatory activity against male Sprague-Dawley rat pressure ulcer model assessed as appearance of thinner epidermal layer at 0.625 to 2.5% administered as ointment by Masson staining based analysis; format: functional, organism-based
[33] = target: Cone cGMP-specific 3',5'-cyclic phosphodiesterase subunit alpha' (Homo sapiens, UniProt P51160); test: Inhibition of PDE6C (unknown origin)
Rattus norvegicus [34] = test: Antiinflammatory activity against male Sprague-Dawley rat pressure ulcer model assessed as wound healing rate at 0.625% administration as ointment measured after 7 days (reference value: 70%); format: functional; settings: time 7 day
Rattus norvegicus [35] = test: Antiinflammatory activity against male Sprague-Dawley rat pressure ulcer model assessed as increase in number of fibroblasts at 0.625 to 2.5% administered as ointment by Masson staining based analysis; format: functional, organism-based
[36] = Acute toxicity in male Kunming mouse assessed as effect on weight at 500 to 4000 mg/kg measured after 14 days; format: organism-based; settings: in vivo, 336 h, dose 500-4000 mg/kg, time 14 day
[37] = Acute toxicity in female Kunming mouse assessed as effect on pathological changes in liver at 500 to 4000 mg/kg measured after 14 days by H and E staining based analysis; format: organism-based; settings: in vivo, 336 h, dose 500-4000 mg/kg, time 14 day
Cytochrome P450 2C19 = Cytochrome P450 2C19 (Homo sapiens, UniProt P33261); test: Inhibition of human CYP2C19; format: ADME
[38] = Acute toxicity in male Kunming mouse assessed as effect on pathological changes in kidney at 500 to 4000 mg/kg measured after 14 days by H and E staining based analysis; format: organism-based; settings: in vivo, 336 h, dose 500-4000 mg/kg, time 14 day
[39] = Apparent volume of distribution in Sprague-Dawley rat at 5 mg/kg, iv; format: ADME, organism-based; settings: in vivo, read-out: Vz

T1 sequence (Q08499 whole entry): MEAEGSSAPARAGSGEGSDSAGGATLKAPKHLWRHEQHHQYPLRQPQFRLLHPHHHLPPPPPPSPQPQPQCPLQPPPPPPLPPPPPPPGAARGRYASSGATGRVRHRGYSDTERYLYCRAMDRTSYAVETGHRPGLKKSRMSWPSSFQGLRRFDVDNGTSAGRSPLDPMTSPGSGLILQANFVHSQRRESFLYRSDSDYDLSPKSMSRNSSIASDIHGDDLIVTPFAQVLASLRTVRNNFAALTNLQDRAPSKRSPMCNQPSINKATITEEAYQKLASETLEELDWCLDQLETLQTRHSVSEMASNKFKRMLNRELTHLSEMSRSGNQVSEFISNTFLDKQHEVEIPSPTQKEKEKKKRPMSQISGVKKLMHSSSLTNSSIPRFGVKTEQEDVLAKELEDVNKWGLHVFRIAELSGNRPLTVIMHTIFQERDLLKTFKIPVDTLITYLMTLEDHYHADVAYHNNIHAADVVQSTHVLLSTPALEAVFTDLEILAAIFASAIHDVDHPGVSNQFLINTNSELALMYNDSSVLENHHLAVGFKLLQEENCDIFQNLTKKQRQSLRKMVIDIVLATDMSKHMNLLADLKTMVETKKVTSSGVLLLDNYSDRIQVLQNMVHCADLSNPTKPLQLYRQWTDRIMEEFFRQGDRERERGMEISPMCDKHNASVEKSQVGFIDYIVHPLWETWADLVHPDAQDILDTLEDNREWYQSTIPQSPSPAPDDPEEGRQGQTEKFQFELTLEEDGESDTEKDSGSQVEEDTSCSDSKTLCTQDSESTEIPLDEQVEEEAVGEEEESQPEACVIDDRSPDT
Chain of Cone cGMP-specific 3',5'-cyclic phosphodiesterase subunit alpha' (P51160 whole entry): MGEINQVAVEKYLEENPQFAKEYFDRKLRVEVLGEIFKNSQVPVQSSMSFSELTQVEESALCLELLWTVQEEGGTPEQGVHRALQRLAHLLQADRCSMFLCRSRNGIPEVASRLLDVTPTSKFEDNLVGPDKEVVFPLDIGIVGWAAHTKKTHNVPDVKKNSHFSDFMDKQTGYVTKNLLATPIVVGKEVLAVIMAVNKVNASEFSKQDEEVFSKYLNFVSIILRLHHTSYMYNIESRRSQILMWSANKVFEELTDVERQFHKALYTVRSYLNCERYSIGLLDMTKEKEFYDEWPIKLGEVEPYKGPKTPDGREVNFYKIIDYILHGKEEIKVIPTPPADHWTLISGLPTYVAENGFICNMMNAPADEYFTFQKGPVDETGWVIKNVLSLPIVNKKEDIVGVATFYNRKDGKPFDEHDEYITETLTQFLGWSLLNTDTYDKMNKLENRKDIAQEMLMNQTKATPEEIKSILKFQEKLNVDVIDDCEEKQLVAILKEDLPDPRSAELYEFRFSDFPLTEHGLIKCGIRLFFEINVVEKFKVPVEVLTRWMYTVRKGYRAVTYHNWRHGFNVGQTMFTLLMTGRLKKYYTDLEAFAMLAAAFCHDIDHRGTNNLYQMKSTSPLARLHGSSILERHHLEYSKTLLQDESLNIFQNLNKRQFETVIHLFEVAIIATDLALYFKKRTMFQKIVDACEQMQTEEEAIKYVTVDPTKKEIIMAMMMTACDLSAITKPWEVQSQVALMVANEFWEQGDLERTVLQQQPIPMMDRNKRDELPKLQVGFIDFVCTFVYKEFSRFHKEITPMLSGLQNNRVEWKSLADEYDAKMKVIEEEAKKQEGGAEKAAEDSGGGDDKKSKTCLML
Chain of Cytochrome P450 2C19 (P33261 whole entry): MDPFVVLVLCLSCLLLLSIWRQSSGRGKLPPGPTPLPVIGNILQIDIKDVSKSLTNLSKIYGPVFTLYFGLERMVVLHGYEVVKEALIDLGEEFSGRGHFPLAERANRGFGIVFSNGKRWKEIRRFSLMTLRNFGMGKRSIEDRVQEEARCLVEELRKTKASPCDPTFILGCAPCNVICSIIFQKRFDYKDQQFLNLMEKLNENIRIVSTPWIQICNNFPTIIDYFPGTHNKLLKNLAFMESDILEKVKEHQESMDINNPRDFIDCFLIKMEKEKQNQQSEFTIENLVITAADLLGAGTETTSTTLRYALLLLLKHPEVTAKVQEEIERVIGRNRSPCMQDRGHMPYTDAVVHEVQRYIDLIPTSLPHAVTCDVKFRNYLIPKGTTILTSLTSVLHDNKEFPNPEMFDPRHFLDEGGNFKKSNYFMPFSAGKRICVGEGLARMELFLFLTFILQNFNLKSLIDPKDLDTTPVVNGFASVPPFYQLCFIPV
Chain of High affinity cAMP-specific and IBMX-insensitive 3',5'-cyclic phosphodiesterase 8A (O60658 whole entry): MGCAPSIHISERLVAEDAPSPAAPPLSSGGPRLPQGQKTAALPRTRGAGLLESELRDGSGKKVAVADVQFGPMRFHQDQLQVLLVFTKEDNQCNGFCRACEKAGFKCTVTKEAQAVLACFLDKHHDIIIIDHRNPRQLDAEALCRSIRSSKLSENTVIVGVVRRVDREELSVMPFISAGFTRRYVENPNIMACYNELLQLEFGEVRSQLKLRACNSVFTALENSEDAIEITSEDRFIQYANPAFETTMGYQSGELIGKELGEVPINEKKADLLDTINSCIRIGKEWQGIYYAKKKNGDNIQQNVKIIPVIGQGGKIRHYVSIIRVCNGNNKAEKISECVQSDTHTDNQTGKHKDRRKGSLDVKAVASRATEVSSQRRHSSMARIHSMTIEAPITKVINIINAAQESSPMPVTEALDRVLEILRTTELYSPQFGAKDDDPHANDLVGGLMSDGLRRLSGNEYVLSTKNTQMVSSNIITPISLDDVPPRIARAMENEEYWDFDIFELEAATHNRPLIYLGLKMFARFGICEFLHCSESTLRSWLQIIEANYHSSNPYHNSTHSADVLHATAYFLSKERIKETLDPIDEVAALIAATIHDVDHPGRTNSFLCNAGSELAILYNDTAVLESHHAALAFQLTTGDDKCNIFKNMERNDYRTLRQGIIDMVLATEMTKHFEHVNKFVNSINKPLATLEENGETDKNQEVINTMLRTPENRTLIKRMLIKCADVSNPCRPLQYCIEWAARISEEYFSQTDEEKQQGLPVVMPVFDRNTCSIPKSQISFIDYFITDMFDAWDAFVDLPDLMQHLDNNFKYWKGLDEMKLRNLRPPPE
Chain of Voltage-gated inwardly rectifying potassium channel KCNH2 (Q12809 whole entry): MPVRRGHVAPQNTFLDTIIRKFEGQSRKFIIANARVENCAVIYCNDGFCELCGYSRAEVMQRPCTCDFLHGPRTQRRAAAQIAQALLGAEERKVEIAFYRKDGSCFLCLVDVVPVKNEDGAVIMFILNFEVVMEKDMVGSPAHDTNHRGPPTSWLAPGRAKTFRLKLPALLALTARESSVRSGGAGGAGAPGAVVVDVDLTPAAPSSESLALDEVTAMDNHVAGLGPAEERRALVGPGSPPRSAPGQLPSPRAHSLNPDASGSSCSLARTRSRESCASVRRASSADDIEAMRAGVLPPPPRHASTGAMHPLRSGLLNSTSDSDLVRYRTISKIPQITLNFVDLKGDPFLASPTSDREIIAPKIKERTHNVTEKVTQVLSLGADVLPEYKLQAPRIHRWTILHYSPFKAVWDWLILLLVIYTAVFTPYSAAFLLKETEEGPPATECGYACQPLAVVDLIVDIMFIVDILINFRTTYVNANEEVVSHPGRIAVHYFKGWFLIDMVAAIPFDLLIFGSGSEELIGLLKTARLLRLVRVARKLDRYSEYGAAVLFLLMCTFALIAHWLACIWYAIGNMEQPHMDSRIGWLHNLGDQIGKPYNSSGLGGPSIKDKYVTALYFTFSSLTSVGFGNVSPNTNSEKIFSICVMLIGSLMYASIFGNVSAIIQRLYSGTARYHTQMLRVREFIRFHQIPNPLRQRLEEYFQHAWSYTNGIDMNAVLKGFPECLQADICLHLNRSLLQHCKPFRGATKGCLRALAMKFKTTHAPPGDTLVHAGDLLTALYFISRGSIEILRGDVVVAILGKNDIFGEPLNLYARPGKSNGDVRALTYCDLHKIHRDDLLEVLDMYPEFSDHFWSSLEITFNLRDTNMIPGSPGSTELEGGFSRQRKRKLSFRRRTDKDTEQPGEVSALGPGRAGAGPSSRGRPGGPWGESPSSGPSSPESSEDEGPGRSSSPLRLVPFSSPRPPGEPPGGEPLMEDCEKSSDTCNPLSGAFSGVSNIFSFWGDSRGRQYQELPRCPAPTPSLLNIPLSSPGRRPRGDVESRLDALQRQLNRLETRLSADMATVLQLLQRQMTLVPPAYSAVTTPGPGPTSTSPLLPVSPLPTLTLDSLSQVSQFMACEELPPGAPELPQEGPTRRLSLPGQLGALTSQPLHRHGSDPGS
Chain of High affinity 3',5'-cyclic-AMP phosphodiesterase 7A (Q13946 whole entry): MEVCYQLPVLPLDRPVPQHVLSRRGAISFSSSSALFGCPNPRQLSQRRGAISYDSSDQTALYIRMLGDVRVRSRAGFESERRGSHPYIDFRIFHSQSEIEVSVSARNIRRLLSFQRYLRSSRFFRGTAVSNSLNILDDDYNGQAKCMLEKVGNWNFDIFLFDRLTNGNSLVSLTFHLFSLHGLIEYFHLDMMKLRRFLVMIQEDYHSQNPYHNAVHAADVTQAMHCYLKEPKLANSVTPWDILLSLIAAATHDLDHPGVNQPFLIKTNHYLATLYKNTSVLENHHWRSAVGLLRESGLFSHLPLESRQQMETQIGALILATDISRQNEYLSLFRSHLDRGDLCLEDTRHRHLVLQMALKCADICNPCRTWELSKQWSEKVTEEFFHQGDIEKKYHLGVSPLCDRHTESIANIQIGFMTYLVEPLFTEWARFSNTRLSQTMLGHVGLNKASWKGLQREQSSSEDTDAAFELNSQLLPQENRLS

Question: Which IC50 (RAW264.7 [1]) does the source give for Cn1c(=O)c2c(ncn2CCC(=O)NNC(=O)c2cc3nccc(-c4ccc(OC(F)F)c(OCC5CC5)c4)n3n2)n(C)c1=O here?
Answer: 2.32 µM

Question: And the Activity [2]?
Answer: Non-toxic

Question: And the C0 [3]?
Answer: 1140 ng/mL

Question: And the Activity [4]?
Answer: Non-toxic

Question: And the inhibition [5]?
Answer: 95.8%

Question: What about the IC50 [6] of the same compound?
Answer: 0.029 µM

Question: What about the IC50 (Cytochrome P450 2C9) of the same compound?
Answer: 24.7 µM

Question: What about the Activity (Rattus norvegicus [7]) of the same compound?
Answer: Active

Question: And the Activity (Rattus norvegicus [8])?
Answer: Active

Question: And the IC50 [9]?
Answer: 1.72 µM

Question: What about the clearance [10] of the same compound?
Answer: 358 mL/min/kg

Question: What about the IC50 [11] of the same compound?
Answer: > 50 µM

Question: What about the Activity (Enterococcus faecium) of the same compound?
Answer: Active

Question: And the CC50 (RAW264.7 [12])?
Answer: > 90 µM

Question: What about the Activity [13] of the same compound?
Answer: Non-toxic

Question: What about the IC50 [14] of the same compound?
Answer: > 10 µM

Question: And the Activity (Rattus norvegicus [15])?
Answer: Active

Question: And the Activity (RAW264.7 [16])?
Answer: Active

Question: And the AUC(0-inf) [17]?
Answer: 26.8 ng·h/mL

Question: And the Activity [18]?
Answer: Non-toxic

Question: What about the Activity (RAW264.7 [19]) of the same compound?
Answer: Active

Question: And the IC50 [20]?
Answer: 15.1 µM

Question: What about the Activity (RAW264.7 [21]) of the same compound?
Answer: inactive

Question: And the Activity (Rattus norvegicus [22])?
Answer: Active

Question: What about the AUC(0-inf) [23] of the same compound?
Answer: 236 ng·h/mL

Question: And the IC50 [24]?
Answer: > 50 µM

Question: What about the AUC(0-t) [25] of the same compound?
Answer: 235 ng·h/mL

Question: What about the Activity (Rattus norvegicus [26]) of the same compound?
Answer: Active

Question: And the Activity (Rattus norvegicus [27])?
Answer: Active

Question: What about the Activity [28] of the same compound?
Answer: Non-toxic

Question: And the Activity [29]?
Answer: Non-toxic

Question: And the Activity (Rattus norvegicus [30])?
Answer: Active

Question: What about the Activity [31] of the same compound?
Answer: Non-toxic

Question: What about the Activity (Rattus norvegicus [32]) of the same compound?
Answer: Active

Question: What about the IC50 [33] of the same compound?
Answer: > 50 µM

Question: What about the Activity (Rattus norvegicus [34]) of the same compound?
Answer: 78%

Question: And the Activity (Rattus norvegicus [35])?
Answer: Active

Question: And the Activity [36]?
Answer: Non-toxic

Question: What about the Activity [37] of the same compound?
Answer: Non-toxic

Question: And the IC50 (Cytochrome P450 2C19)?
Answer: > 50 µM

Question: What about the Activity [38] of the same compound?
Answer: Non-toxic

Question: And the Vd [39]?
Answer: 8.79 L/kg
